The record followed here is patent publication US9926297B2, “Bicyclic AZA compounds as muscarinic M1 receptor and/or M4 receptor agonists” (Heptares Therapeutics Limited, priority 2014, dated 2018).

Test [1] addresses T1, human muscarinic M1 receptor (Homo sapiens, UniProt P11229).
T1 sequence (P11229 1-460): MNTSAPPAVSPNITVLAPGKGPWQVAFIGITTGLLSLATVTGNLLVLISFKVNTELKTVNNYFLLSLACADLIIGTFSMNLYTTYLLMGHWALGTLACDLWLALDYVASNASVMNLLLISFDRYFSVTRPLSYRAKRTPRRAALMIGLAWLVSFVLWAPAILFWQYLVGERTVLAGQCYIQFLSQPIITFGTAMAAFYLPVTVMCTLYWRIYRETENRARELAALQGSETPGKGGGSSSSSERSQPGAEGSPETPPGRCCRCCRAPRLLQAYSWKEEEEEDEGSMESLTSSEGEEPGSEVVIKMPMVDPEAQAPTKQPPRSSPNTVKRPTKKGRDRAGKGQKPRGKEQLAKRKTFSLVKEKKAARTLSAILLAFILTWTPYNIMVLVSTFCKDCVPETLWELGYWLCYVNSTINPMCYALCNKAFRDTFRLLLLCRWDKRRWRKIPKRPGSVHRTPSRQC
The test is described as follows: Alphascreen Surefire phospho-ERK1/2 functional assay, M1. The format is cell-based. As to conditions: for EC50 / % Emax cf. ACh, M1: CHO cells stably expressing human M1; for EC50: phospho-ERK1/2, * = variable results, read-out: pEC50 M1 (converted); for Emax: CHO, read-out: % Emax cf. ACh, M1, CHO cells stably expressing human M1; for Emax / % Emax cf. ACh, M1: relative to ACh.

Test [2] concerns the target T2, human muscarinic M4 receptor (Homo sapiens, UniProt P08173).
T2 construct: expressed in transfected cells
T2 sequence (P08173 1-479): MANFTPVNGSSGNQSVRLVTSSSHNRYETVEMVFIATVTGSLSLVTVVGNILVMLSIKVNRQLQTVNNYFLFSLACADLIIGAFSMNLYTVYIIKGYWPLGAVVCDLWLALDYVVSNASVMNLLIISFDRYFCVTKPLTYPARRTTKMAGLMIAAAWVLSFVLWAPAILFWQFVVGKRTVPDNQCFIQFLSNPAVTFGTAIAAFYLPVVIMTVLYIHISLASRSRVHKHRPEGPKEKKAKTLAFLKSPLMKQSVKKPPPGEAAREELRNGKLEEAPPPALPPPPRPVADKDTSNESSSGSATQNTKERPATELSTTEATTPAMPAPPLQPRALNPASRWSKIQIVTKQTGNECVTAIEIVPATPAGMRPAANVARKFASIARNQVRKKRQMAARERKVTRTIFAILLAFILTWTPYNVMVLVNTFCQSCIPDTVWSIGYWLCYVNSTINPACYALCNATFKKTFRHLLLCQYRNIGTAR
The test is described as follows: Alphascreen Surefire phospho-ERK1/2 functional assay, M4. The format is cell-based. As to conditions: for EC50: phospho-ERK1/2, * = variable results, read-out: pEC50 M4 (converted); for Emax: CHO, read-out: % Emax cf. ACh, M4, CHO cells stably expressing human M4.

Where [3] appears, read: CHO cells stably expressing human M4.

With `CCOC(=O)N1CCC2(CC(N3CCC(N4CCC[C@H]4C(F)(F)F)CC3)C2)C1` (single isomer, unassigned) [2-101 Isomer 2], the EC50 in test [1] is 10000 nM; in test [2] (setting [3]), 631 nM. Besides, the maximum response (Emax) in test [1] was 70%; in test [2] (relative to ACh) it was 98%.
The like results for `CCOC(=O)N1CCC2(CC(N3CCC(N4C(=O)CC[C@@H]4CC)CC3)C2)C1` (single isomer, unassigned) [2-116 Isomer 2] were, in that order, 63.1 nM, 6.31 nM, 109% and 103%.
The corresponding values for `CCOC(=O)N1CCC2(CC(N3CCC(N4CCC[C@@H]4c4nccs4)CC3)C2)C1` (single isomer, unassigned) [2-132 Isomer 2] are over 20000 nM, 12.6 nM, 18% and 72%.
The corresponding values for `COC(=O)N1CCC2(CC(N3CCC(c4ncc(C)n4C)CC3)C2)C1` (single isomer, unassigned) [1-9 Isomer 2, methyl 2-[4-(1,5-dimethyl-1H-imidazol-2-yl)piperidin-1-yl]-6-azaspiro[3.4]octane-6-carboxylate] are over 20000 nM, 794 nM, 57% and 48%.
`CCOC(=O)N1CCC2(CC(N3CCC(c4nc(C(F)(F)F)c[nH]4)CC3)C2)C1` (single isomer, unassigned) [1-3 Isomer 2, ethyl 2-(4-(4-(trifluoromethyl)-1H-imidazol-2-yl)piperidin-1-yl)-6-azaspiro[3.4]octane-6-carboxylate]: the EC50 in test [1] is 501 nM; in test [2] (setting [3]) it was 200 nM. Also, the values for the Emax in test [1] and in test [2] (relative to ACh) were 30% and 41%, respectively.
The corresponding values for `COC(=O)N1CCC2(CC(N3CCC(c4ccnn4C)CC3)C2)C1` (mixture of isomers) [1-20 Mixture of diastereomers, methyl 2-[4-(1-methyl-1H-pyrazol-5-yl)piperidin-1-yl]-6-azaspiro[3.4]octane-6-carboxylate] are over 20000 nM, 1000 nM, 62% and 56%.
As for `CCOC(=O)N1CCC2(CC(N3CCC(c4nc(C#N)c[nH]4)CC3)C2)C1` (single isomer, unassigned) [1-4 Isomer 2, ethyl 2-[4-(4-cyano-1H-imidazol-2-yl)piperidin-1-yl]-6-azaspiro[3.4]octane-6-carboxylate], the EC50 was 1000 nM in test [1] and 251 nM in test [2] (setting [3]). For the same compound, the Emax was found to be 55% in test [1] and 67% in test [2] (relative to ACh).
The corresponding values for `[2H]C([2H])(C)OC(=O)N1CCC2(CC(N3CCC(n4cccn4)CC3)C2)C1` (single isomer, unassigned) [1-68 Isomer 2, (1,1-^2H2)ethyl 2-[4-(1H-pyrazol-1-yl)piperidin-1-yl]-6-azaspiro[3.4]octane-6-carboxylate] are 79.4 nM, 6.31 nM, 91% and 98%.
The corresponding values for `CCOC(=O)N1CCC2(CC(N3CCC(c4c(C)cnn4CC)CC3)C2)C1` (single isomer, unassigned) [1-59 Isomer 2, ethyl 2-[4-(1-ethyl-4-methyl-1H-pyrazol-5-yl)piperidin-1-yl]-6-azaspiro[3.4]octane-6-carboxylate] are 398 nM, 100 nM, 38% and 76%.
`[2H]C([2H])(C)OC(=O)N1CCC2(CC(N3CCC(c4ccnn4C)CC3)C2)C1` (single isomer, unassigned) [1-71 Isomer 2, (1,1-^2H2)ethyl 2-[4-(1-methyl-1H-pyrazol-5-yl)piperidin-1-yl]-6-azaspiro[3.4]octane-6-carboxylate]: the EC50 in test [1] is over 20000 nM; in test [2] (setting [3]), 100 nM. For the same compound, the maximum response (Emax) in test [1] came out at 6%; in test [2] (relative to ACh), 69%.
The like results for `CCOC(=O)N1CCC2(CC(N3CCC(n4cnnn4)CC3)C2)C1` (single isomer, unassigned) [1-62 Isomer 2, ethyl 2-[4-(1H-tetrazol-1-yl)piperidin-1-yl]-6-azaspiro[3.4]octane-6-carboxylate] were, in that order, 1260 nM, over 20000 nM, 73% and 10%.
The corresponding values for `[2H]C([2H])([2H])C([2H])([2H])OC(=O)N1CCC2(CC(N3CCC(n4cccn4)CC3)C2)C1` (single isomer, unassigned) [1-70 Isomer 2, (^2H5)ethyl 2-[4-(1H-pyrazol-1-yl)piperidin-1-yl]-6-azaspiro[3.4]octane-6-carboxylate] are 79.4 nM, 5.01 nM, 92% and 101%.
As for `CCOC(=O)N1CCC2(CC(N3CCC(N4CCCC4c4nnnn4C)CC3)C2)C1` (single isomer, unassigned) [2-130 Isomer 2, ethyl 2-{4-[2-(1-methyl-1H-tetrazol-5-yl)pyrrolidin-1-yl]piperidin-1-yl}-6-azaspiro[3.4]octane-6-carboxylate], in test [1], the EC50 was over 20000 nM and the “% Emax cf. ACh, M1” value worked out at 11%. Further, the EC50 in test [2] (setting [3]) is 63.1 nM. In addition, in test [2] (CHO cells stably expressing human M4, relative to ACh), the “% Emax cf. ACh, M4” value is given as 66%.
On to `CCOC(=O)N1CCC2(CC(N3CCC(n4ccnn4)CC3)C2)C1` (single isomer, unassigned) [1-35 Isomer 2, ethyl 2-[4-(1H-1,2,3-triazol-1-yl)piperidin-1-yl]-6-azaspiro[3.4]octane-6-carboxylate], for which the EC50 in test [1] was 398 nM; in test [2] (setting [3]), 200 nM. The Emax in test [1] was found to be 80%; in test [2] (relative to ACh), 61%.
As for `CCOC(=O)N1CCC2(CC(N3CCC(c4c(C)cc[nH]c4=O)CC3)C2)C1` (single isomer, unassigned) [3-14 Isomer 1, ethyl 2-[4-(4-methyl-2-oxo-1,2-dihydropyridin-3-yl)piperidin-1-yl]-6-azaspiro[3.4]octane-6-carboxylate], in test [1], the EC50 is 3160 nM and the “% Emax cf. ACh, M1” value is on record as 65%. Besides, the EC50 in test [2] (setting [3]) was 501 nM. Further, the Emax in test [2] (relative to ACh) came out at 65%.
On to `CCOC(=O)N1CCC2(CC(N3CCC(c4cc(N)n[nH]4)CC3)C2)C1` (single isomer, unassigned) [1-19 Isomer 2, ethyl 2-[4-(3-amino-1H-pyrazol-5-yl)piperidin-1-yl]-6-azaspiro[3.4]octane-6-carboxylate], for which the EC50 in test [1] is 794 nM; in test [2] (setting [3]), 7940 nM. Moreover, the maximal effect (Emax) in test [1] was 83%; in test [2] (relative to ACh) it was 48%.
The corresponding values for `CCOC(=O)N1CCC2(CC(N3CCC(N4C[C@@H](F)C[C@@H]4CO)CC3)C2)C1` (single isomer, unassigned) [2-137 Isomer 2] are 1000 nM, 39.8 nM, 78% and 111%.
The like results for `CCOC(=O)N1CCC2(CC(N3CCC(N4CC[C@@H](F)C4)CC3)C2)C1` (single isomer, unassigned) [2-98 Isomer 2] were, in that order, over 20000 nM, 126 nM, 10% and 45%.
